Measurements taken from US20230146870A1, “METHOD TO QUANTIFY AFFINITY AND SELECTIVITY OF SMALL MOLECULES FOR PROTEINS IN LIVING CELLS” (Ohio State Innovation Foundation, priority 2021, published 2023).

Legend:
PKCβI-mVenus = target: T1, PKCβI-mVenus (Mus musculus, UniProt P68404); assay: Confocal microscopy of translocation of PKCβI-mVenus in HEK293 cells; assay type: cell-based; conditions: 2 μM, 2 h
T1 construct: we generated expression vectors for eight full-length mouse isozymes; expressed in transfected cells; host or cells: HEK293 (ATCC CRL-1573), transient transfection with CMV-PKC betaI-mVenus-N1
Description: FIGS. 36A-36D provide confocal and DIC micrographs of living HEK293 cells transiently transfected to express PKCβI-mVenus. […] Scale bars=10 microns.
This IRES vector was derived from a previously reported^52 variant encoding the somewhat less fluorescent protein Venus.
Living cells cultured on an 8-well chamber glass slide (Ibidi μ-Slide, 300 μL, 100,000 cells/well) were imaged with an inverted Leica TCS SP8 confocal laser-scanning microscope (63× oil-immersion objective). Fluorescent probes were excited at 405 nm and mVenus was excited at 488 nm. Emitted photons were collected from 425-500 nm and 500-650 nm. For imaging, transiently transfected HEK293 cells in complete medium (10% FBS) were plated on the Ibidi μ-Slide for 16 h to promote adherence. Concentrated stock solutions of fluorescent probes in DMSO were serially diluted 500-fold in serum-free DMEM medium to afford 2× stock solutions (0.2% DMSO). Half of the cell culture medium (150 μL) was carefully removed by pipet and gently replaced with the 2× stock solution of the probe in serum-free medium (final [FBS]˜5%). Cells were treated with probes (2 μM) at 37° C. for 2 h before imaging by microscopy. Laser power and PMT gain settings were identical for all images and controls within a given experiment for accurate comparisons of cellular fluorescence.

[1] = target: native (untagged) murine PKCγ (Mus musculus, UniProt P63318); assay: FPCBA saturation binding of probe 1, native PKCγ (IRES-mVenus) in HEK293 cells
murine PKCγ-mVenus = murine PKCγ-mVenus (Mus musculus, UniProt P63318); assay: FPCBA saturation binding of probe 1, HEK293 cells expressing PKCγ-mVenus (Example 3)
murine PKCη-mVenus = murine PKCη-mVenus (Mus musculus, UniProt P23298); assay: FPCBA saturation binding of probe 1, HEK293 cells expressing PKCη-mVenus (Example 3)
murine PKCη-mVenus, sequence (P23298 whole entry): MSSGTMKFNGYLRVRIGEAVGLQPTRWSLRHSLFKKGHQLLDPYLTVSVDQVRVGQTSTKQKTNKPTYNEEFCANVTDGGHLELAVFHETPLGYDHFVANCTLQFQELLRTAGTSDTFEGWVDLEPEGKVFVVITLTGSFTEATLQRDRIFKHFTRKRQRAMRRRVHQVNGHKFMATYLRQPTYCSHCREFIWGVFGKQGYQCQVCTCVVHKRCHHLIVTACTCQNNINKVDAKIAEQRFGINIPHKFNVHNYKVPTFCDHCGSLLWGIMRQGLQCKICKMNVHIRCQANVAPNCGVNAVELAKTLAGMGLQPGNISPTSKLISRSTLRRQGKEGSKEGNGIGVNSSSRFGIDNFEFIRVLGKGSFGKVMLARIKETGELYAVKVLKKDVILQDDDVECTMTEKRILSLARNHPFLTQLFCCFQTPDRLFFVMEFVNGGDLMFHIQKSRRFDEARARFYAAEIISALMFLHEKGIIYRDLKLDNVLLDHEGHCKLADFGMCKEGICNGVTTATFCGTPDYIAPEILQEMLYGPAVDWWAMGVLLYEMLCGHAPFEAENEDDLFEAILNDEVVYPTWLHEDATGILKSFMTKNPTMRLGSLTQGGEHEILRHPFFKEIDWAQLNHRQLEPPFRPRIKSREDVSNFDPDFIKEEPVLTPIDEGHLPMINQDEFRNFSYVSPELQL

Jurkat cells = assay: Cellular viability assay, Jurkat lymphocytes, 48 h, flow cytometry (Example 2); assay type: cell-based
Description: The impact of membrane transporters on the toxicity profile of 49 was also studied.
Jurkat lymphocytes were seeded into a 96-well plate in fresh complete medium at 2.5×10^5 cells/mL and 200 μL per well. All compounds were serial diluted in DMSO and added to complete media to achieve a 1:1000 dilution factor (0.10% DMSO in each well). […] The total cell-count for each well was determined by flow cytometry and staining with propidium iodide was used to identify populations of live cells (only dead cells are stained by PI). Counts of viable cells for each treatment, determined in triplicate, were used to generate dose-response curves. These curves were fitted with non-linear regression using an inhibitor vs. response variable slope […] model (GraphPad Prism 9) to determine IC50 values.

murine PKCβI-mVenus = target: T2, murine PKCβI-mVenus (Mus musculus, UniProt P68404); assay: FPCBA saturation binding, HEK293 cells expressing PKCβI-mVenus (Example 3)
T2 construct: fused on or other part: mVenus at the C-terminus
T2 sequence (P68404 2-621 limits assumed): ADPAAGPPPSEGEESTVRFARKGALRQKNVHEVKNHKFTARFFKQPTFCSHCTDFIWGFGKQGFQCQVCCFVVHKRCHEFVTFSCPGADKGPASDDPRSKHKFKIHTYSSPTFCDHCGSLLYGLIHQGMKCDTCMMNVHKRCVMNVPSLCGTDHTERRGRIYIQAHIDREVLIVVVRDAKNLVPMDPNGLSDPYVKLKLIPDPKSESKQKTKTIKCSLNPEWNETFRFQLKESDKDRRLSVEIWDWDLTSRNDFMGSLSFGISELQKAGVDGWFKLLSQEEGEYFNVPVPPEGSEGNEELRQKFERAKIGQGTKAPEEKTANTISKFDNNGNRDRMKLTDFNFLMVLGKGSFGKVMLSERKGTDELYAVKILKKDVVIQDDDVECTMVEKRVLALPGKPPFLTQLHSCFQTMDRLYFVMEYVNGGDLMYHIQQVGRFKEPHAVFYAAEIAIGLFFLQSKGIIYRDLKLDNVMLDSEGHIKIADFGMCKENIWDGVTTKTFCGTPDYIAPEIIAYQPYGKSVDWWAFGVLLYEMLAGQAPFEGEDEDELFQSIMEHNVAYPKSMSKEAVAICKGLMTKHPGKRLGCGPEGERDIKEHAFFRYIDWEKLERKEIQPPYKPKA
From the text: To investigate the potential for quantitative analysis of binding to PKCs expressed in cells, we evaluated whether 1-3 could readily achieve equilibrium, which is necessary for measurements of cellular equilibrium dissociation constants (Kd).

murine PKCδ-mVenus = murine PKCδ-mVenus (Mus musculus, UniProt P28867); assay: FPCBA saturation binding of probe 1, HEK293 cells expressing PKCδ-mVenus (Example 3)
murine PKCδ-mVenus, sequence (P28867 whole entry): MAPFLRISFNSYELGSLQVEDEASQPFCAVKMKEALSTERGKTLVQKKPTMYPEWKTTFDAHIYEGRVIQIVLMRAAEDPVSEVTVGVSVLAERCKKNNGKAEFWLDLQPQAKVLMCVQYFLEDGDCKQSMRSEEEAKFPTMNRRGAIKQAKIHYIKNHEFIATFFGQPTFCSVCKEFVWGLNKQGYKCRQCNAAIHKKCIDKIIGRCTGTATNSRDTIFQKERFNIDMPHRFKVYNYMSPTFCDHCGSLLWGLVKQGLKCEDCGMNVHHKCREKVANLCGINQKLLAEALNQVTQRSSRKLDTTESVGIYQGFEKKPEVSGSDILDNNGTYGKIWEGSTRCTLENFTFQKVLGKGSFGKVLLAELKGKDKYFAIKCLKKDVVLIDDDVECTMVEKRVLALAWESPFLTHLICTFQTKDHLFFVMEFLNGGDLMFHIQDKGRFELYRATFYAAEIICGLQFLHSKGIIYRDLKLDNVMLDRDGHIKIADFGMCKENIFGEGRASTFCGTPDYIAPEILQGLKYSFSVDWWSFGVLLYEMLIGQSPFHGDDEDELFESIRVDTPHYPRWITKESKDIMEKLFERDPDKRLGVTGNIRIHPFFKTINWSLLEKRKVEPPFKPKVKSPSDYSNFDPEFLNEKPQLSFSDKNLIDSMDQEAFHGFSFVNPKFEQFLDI

PKCε = PKCε (Homo sapiens, UniProt Q02156); conditions: radiolabeled PDBu at 4° C.; read-out: Biochemical Ki, PKCε; cited from earlier work
[2] = target: native (untagged) murine PKCη (Mus musculus, UniProt P23298); assay: FPCBA competition with probe 1, native PKCη in HEK293 cells; assay type: binding; set-up: expressed in transfected cells; host or cells: HEK293 (ATCC CRL-1573), transient transfection with pIRES-mVenus carrying the PKC gene; conditions: read-out: Cellular Ki for native PKCη (95% confidence interval); probe 1 400 nM, BIM1 2 μM, 2 h at 37° C.
native (untagged) murine PKCη, sequence (P23298 whole entry): as the sequence (P23298 whole entry) above

PKCγ = PKCγ (Homo sapiens, UniProt P05129); conditions: radiolabeled PDBu at 4° C.; read-out: Biochemical Ki, PKCγ; cited from earlier work
[3] = target: native (untagged) murine PKCα (Mus musculus, UniProt P20444); assay: FPCBA competition with probe 1, native PKCα in HEK293 cells; assay type: binding; set-up: For coexpression of full-length unmodified PKC proteins with mVenus as an independent marker; expressed in transfected cells; host or cells: HEK293 (transient, pIRES-mVenus); conditions: read-out: Cellular Ki for native PKCα (95% confidence interval); probe 1 400 nM, BIM1 2 μM, 2 h at 37° C.

| SMILES | translocation of PKCβI-mVenus (PKCβI-mVenus) | Kd [1] | Kd (murine PKCγ-mVenus) | Kd (murine PKCη-mVenus) | activity relative to 33 (Jurkat cells) | IC50 (Jurkat cells; Homo sapiens, Jurkat, read-out: toxicity towards Jurkat cells, IC50) | median blue fluorescence of cells expressing high levels of PKCβI-mVenus vs non-transfected cells (murine PKCβI-mVenus; 1 at 1 μM, 2 h, BIM1 2 μM) | Kd (murine PKCβI-mVenus; BIM1 2 μM, 2 h at 37° C., 4% FBS, read-out: Cellular Kd for probe, PKCβI-mVenus) | signal-to-background (S/B) (murine PKCβI-mVenus; with BIM1, 1.25 μM probe) | improvement of apparent cellular affinity for PKCβI by BIM1 (murine PKCβI-mVenus; with vs without BIM1) | Kd (murine PKCδ-mVenus) | Ki (PKCε) | Ki [2] | Ki (PKCγ) | Ki [3] |
| --- | --- | --- | --- | --- | --- | --- | --- | --- | --- | --- | --- | --- | --- | --- | --- |
| CCCCCCN(CCCCCCCCCCCCNC(=O)c1cc2cc(F)c(O)c(F)c2oc1=O)C(=O)O[C@@]12[C@H](O)[C@@H](C)[C@@]3(O)[C@@H](C=C(CO)C[C@]4(O)C(=O)C(C)=C[C@@H]34)[C@@H]1C2(C)C [probe 1, (1aR,1bS,4aR,7aS,7bS,8R,9R,9aS)-4a,7b,9-trihydroxy-3-(hydroxymethyl)-1,1,6,8-tetramethyl-5-oxo-1,1a,1b,4,4a,5,7a,7b,8,9-decahydro-9aH-cyclopropa[3,4]benzo[1,2-e]azulen-9a-yl (12-(6,8-difluoro-7-hydroxy-2-oxo-2H-chromene-3-carboxamido)dodecyl)(hexyl)carbamate] | translocated to cellular membranes | 211 ± 92 nM | 391 ± 142 nM | 250 ± 36 nM | > 20 fold | 500 nM | ca. 4 fold | 200 nM | 2.9 | ~2 fold | 657 ± 254 nM |  |  |  |  |
| CCC/C=C/C=C/C(=O)O[C@H]1/C(=C/C(=O)OC)C[C@H]2C[C@H]([C@@H](C)O)OC(=O)C[C@H](O)C[C@@H]3C[C@H](OC(C)=O)C(C)(C)[C@](O)(C[C@@H]4C/C(=C/C(=O)OC)C[C@H](/C=C/C(C)(C)[C@]1(O)O2)O4)O3 [bryostatin 1] |  |  |  |  |  |  |  |  |  |  |  | 3 nM | 9 nM | 2.2 nM | 3 nM |
